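Compound exposure: 48 hours, 5 concentrations, 96-well plates. At the GI50, growth is halved.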 Calls of active or inactive are those of the source. Rule as the data show it: active = GI50 up to about 1.1 µM and inactive = higher.
Experiments:
Test in all cases: inhibition of tumour cell growth, NCI panel, 48 h
[1] = system: ACHN
[2] = system: CCRF-CEM
[3] = system: COLO 205
[4] = system: HOP-62
[5] = system: LOX IMVI
[6] = system: MOLT-4
[7] = system: NCI-H23
[8] = system: NCI-H460
[9] = system: OVCAR-3
[10] = system: OVCAR-5
[11] = system: RPMI-8226
[12] = system: SF-539
[13] = system: U-251
[14] = system: UO-31
[15] = system: NCI-H226
[16] = system: UACC-62
[17] = system: SR

Measured: GI50

CC1(C)OCC(C(O)C2OC(C)(C)OC2/C=N\O)O1 (configuration not stated)
inactive: [1] > 100 µM | [2] > 100 µM | [3] > 100 µM | [4] > 100 µM | [5] > 100 µM | [6] > 100 µM | [7] > 100 µM | [8] > 100 µM | [9] > 100 µM | [10] > 100 µM | [11] > 100 µM | [12] > 100 µM | [13] > 100 µM | [14] > 100 µM

O=C(O)CCCCCCC[C@@H]1S[C@H]1CCCCCCO
inactive: [2] > 100 µM | [3] > 100 µM | [4] > 100 µM | [5] > 100 µM | [6] > 100 µM | [15] > 100 µM | [7] > 100 µM | [8] > 100 µM | [9] > 100 µM | [10] > 100 µM | [11] > 100 µM | [12] > 100 µM | [13] > 100 µM | [16] > 100 µM | [14] > 100 µM

CC1=CC(C)(C)N=C2SC(c3ccc(Cl)cc3)=NN12
inactive: [1] 27.9 µM | [2] 28.2 µM | [3] 41.1 µM | [4] 54.3 µM | [5] 40.1 µM | [6] 14.9 µM | [15] 21.1 µM | [7] 15.5 µM | [8] 29.2 µM | [9] 18.1 µM | [10] 17.6 µM | [11] 12.1 µM | [12] 31.6 µM | [13] 23 µM | [16] 59.6 µM | [14] 19.8 µM

CCOC(=O)CNc1nnnn1C1OC(CO)C(O)C1O (configuration not stated)
inactive: [1] > 100 µM | [2] > 100 µM | [3] > 100 µM | [4] > 100 µM | [5] > 100 µM | [6] > 100 µM | [15] > 100 µM | [8] > 100 µM | [9] > 100 µM | [10] > 100 µM | [11] > 100 µM | [12] > 100 µM | [13] > 100 µM | [16] > 100 µM | [14] > 100 µM

C[C@]12CCC(=O)C=C1CC[C@@H]1[C@@H]2[C@@H](O)C[C@@]2(C)[C@H]1CC[C@]2(O)C(=O)COC(=O)COCC(=O)O
inactive: [1] > 100 µM | [2] > 100 µM | [3] > 100 µM | [4] > 100 µM | [5] > 100 µM | [6] > 100 µM | [15] > 100 µM | [7] > 100 µM | [8] > 100 µM | [9] > 100 µM | [10] > 100 µM | [11] > 100 µM | [12] > 100 µM | [13] > 100 µM | [16] > 100 µM | [14] > 100 µM

CC1(C)C2C=CC1C(=O)CC2 (configuration not stated)
inactive: [1] > 100 µM | [2] > 100 µM | [4] > 100 µM | [5] > 100 µM | [6] > 100 µM | [15] > 100 µM | [7] > 100 µM | [8] > 100 µM | [9] > 100 µM | [10] > 100 µM | [11] > 100 µM | [12] > 100 µM | [13] > 100 µM | [14] > 100 µM

CC1CCC(C(C)C)C(O[C@@H]2OC(=O)C[C@@H]2Sc2ccccc2)C1 (some centres not stated)
inactive: [1] 20 µM | [2] 7.01 µM | [3] 18.5 µM | [4] 32.1 µM | [5] 13.1 µM | [6] 12 µM | [7] 26.2 µM | [8] 24.5 µM | [9] 14.5 µM | [10] 43 µM | [11] 13.3 µM | [12] 23.5 µM | [13] > 10 µM | [16] 24.7 µM | [14] > 10 µM

CC(C)(C)N/N=C(\Cc1occc(=O)c1O)C(=O)Nc1ccc([N+](=O)[O-])cc1[N+](=O)[O-]
inactive: [1] > 100 µM | [2] > 100 µM | [3] > 100 µM | [4] > 100 µM | [5] > 100 µM | [6] > 100 µM | [15] > 100 µM | [7] > 100 µM | [8] > 100 µM | [10] > 100 µM | [11] > 100 µM | [12] > 100 µM | [17] > 100 µM | [13] > 100 µM | [16] > 100 µM | [14] > 100 µM

O=C1CCC(c2nc3cc(Cl)ccc3o2)C(=O)N1 (configuration not stated)
inactive: [1] > 100 µM | [2] > 100 µM | [3] > 100 µM | [4] > 100 µM | [5] > 100 µM | [6] > 100 µM | [15] > 100 µM | [7] > 100 µM | [8] > 100 µM | [9] > 100 µM | [10] > 100 µM | [12] > 100 µM | [17] > 100 µM | [13] > 100 µM | [16] > 100 µM | [14] > 100 µM
